Test results published in ChEMBL document CHEMBL5518183, “Broad-spectrum antiviral strategy: Host-targeting antivirals against emerging and re-emerging viruses” (Eur J Med Chem, 2024).
Where a name gives a salt, the structure may show the parent alone.

Key:
[1] = test system: Human immunodeficiency virus 1; test: Antiviral activity against HIV-1 infected in human MT4 cells assessed as reduction in virus induced cytopathic effect incubated for 5 days by Cell Titer Glo luminescent assay; assay type: functional, organism-based; conditions: Human immunodeficiency virus 1, MT4, 120 h
Enterovirus A71 = test: Antiviral activity against human EV71 infected in HEK293 cells assessed as reduction in viral replication at MOI of 1 incubated for 48 hrs by luciferase assay; assay type: functional, organism-based; conditions: Enterovirus A, HEK293, 48 h
[2] = molecular target: Virion infectivity factor (Human immunodeficiency virus type 1 group M subtype B (isolate NY5)(HIV-1), UniProt P12504); test: Inhibition of HIV1 Vif; parameters: species or system Human immunodeficiency virus 1
Monkeypox virus = test: Antiviral activity against Monkeypox virus V79-1-005 infected in Vero cells assessed as reduction in viral replication measured after 4 days by colorimetric assay; assay type: functional, organism-based; conditions: V79-1-005, Vero, 96 h
Caco-2 = test: Cytotoxicity against human Caco-2 cells assessed as reduction in cell growth measured fpr 48 hrs by MTT assay; assay type: functional
SARS-CoV-2 [3] = test: Antiviral activity against SARS-CoV-2 infected in African green monkey Vero E6 cells assessed as inhibition of viral replication; assay type: functional, organism-based; conditions: Severe acute respiratory syndrome coronavirus 2, Vero C1008
SARS-CoV-2 [4] = test: Antiviral activity against SARS-CoV-2 infected in BALB/c mouse assessed as survival rate at 10 uM measured after 3 to 5 days; assay type: functional, Severe acute respiratory syndrome coronavirus 2; conditions: time 3-5 day
Hepatitis B virus = test: Antiviral activity against HBV genotype A infected in human HepG2 cells assessed as inhibition of viral replication; assay type: functional, organism-based
SARS-CoV-2 [5] = test: Antiviral activity against SARS-CoV-2 USA-WA1/2020 infected in human A549-ACE2 cells assessed as reduction in viral replication; assay type: functional, organism-based; conditions: Severe acute respiratory syndrome coronavirus 2, USA-WA1/2020, A549-ACE2
MT4 = test: Cytotoxicity against human MT4 cells assessed as reduction in cell viability incubated for 72 hrs by celltiter glo assay; assay type: functional
West Nile virus = test: Antiviral activity against West Nile virus infected in African green monkey Vero cells assessed as inhibition of virus induced cytopathic effect incubated for 48 hrs by MTS assay; assay type: functional, organism-based
SARS-CoV-2 [6] = test: Antiviral activity against SARS-CoV-2 infected in African green monkey Vero E6 cells assessed as inhibition of virus growth; assay type: functional, organism-based; conditions: Severe acute respiratory syndrome coronavirus 2, Vero C1008
[7] = test system: Middle East respiratory syndrome-related coronavirus; test: Antiviral activity against MERS-CoV infected in human Calu-3 cells assessed as inhibition of viral growth; assay type: functional, organism-based
SARS-CoV-2 [8] = test: Antiviral activity against SARS-CoV-2 infected in […] Vero cells assessed as reduction in viral replication incubated for 24 hrs by Immunofluorescence assay; assay type: functional, organism-based; conditions: Severe acute respiratory syndrome coronavirus 2, Vero
SARS-CoV-2 [9] = test: Antiviral activity against SARS-CoV-2 infected in African green monkey Vero cells assessed as reduction in viral replication incubated for 24 hrs by Immunofluorescence assay; assay type: functional, organism-based; conditions: Severe acute respiratory syndrome coronavirus 2, Vero
Human coronavirus 229E = test: Antiviral activity against HCoV-229E infected in human MRC5 cells incubated for 3 days measured by crystal violet staining based plaque counting analysis; assay type: functional, organism-based; conditions: MRC5, 72 h
[10] = test system: Middle East respiratory syndrome-related coronavirus; test: Antiviral activity against MERS-CoV infected in human MRC5 cells assessed as reduction in viral replication measured after 48 hrs by qRT-PCR assay; assay type: functional, organism-based; conditions: MRC5, 48 h
SARS-CoV-2 [11] = test: Antiviral activity against SARS-CoV-2 infected in African green monkey Vero E6 cells assessed as reduction in viral replication incubated for 24 hrs by Immunofluorescence assay; assay type: functional, organism-based; conditions: Severe acute respiratory syndrome coronavirus 2, Vero C1008, 24 h

Virion infectivity factor, sequence (P12504 1-150 limits assumed): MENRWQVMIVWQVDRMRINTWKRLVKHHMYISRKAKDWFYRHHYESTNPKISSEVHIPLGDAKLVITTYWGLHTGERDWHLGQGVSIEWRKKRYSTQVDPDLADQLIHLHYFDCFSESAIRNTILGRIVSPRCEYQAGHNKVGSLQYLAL
Virion infectivity factor, sequence (P12504 151-192 limits assumed): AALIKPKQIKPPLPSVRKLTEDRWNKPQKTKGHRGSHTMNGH

Oc1ccccc1/C=N/Nc1nc(Nc2ccc(F)cc2)nc(Nc2ccc(F)cc2)n1
EC50 [1]: 2 nM

O=C(CCNC(=O)c1ccc(OC(F)(F)F)cc1)C[C@H]1CCCc2ccccc21
IC50 (Enterovirus A71): 66 nM

CCOC(=O)c1cc(C(=O)c2ccc3ccccc3c2)n2ccc(C(=O)c3ccncc3)cc12
IC50 [2]: 11000 nM

CC[C@H](CC#N)OC(=O)N[C@@H](C)c1cccc(NC(=O)Nc2ccc(-c3cnco3)c(OC)c2)c1 [AVN-944]
EC50 (Monkeypox virus): 34.5 nM

Cc1c(-c2ccc(-c3ccccc3F)cc2)nc2ccc(F)cc2c1C(=O)O [BREQUINAR]
CC50 (Caco-2): 231000 nM
EC50 (SARS-CoV-2 [3]): 123 nM

CN(C)C(=O)COC(=O)Cc1ccc(OC(=O)c2ccc(NC(=N)N)cc2)cc1.CS(=O)(=O)O [CAMOSTAT MESILATE]
Activity (SARS-CoV-2 [4]): 60%

C/C=C/C[C@@H](C)[C@@H](O)[C@H]1C(=O)N[C@@H](CC)C(=O)N(C)CC(=O)N(C)[C@@H](CC(C)C)C(=O)N[C@@H](C(C)C)C(=O)N(C)[C@@H](CC(C)C)C(=O)N[C@@H](C)C(=O)N[C@H](C)C(=O)N(C)[C@@H](CC(C)C)C(=O)N(C)[C@@H](CC(C)C)C(=O)N(C)[C@@H](C(C)C)C(=O)N1C [CYCLOSPORINE]
IC50 (Hepatitis B virus): 5780 nM

COc1ccc([C@H]2c3[nH]c4ccc(Cl)cc4c3CCN2C(=O)Oc2ccc(Cl)cc2)cc1 [EMVODODSTAT]
EC50 (SARS-CoV-2 [5]): 2 nM

Cc1oncc1C(=O)Nc1ccc(C(F)(F)F)cc1 [LEFLUNOMIDE]
CC50 (MT4): 178000 nM
EC50 (West Nile virus): 35000 nM

N=C(N)Nc1ccc(C(=O)Oc2ccc3cc(C(=N)N)ccc3c2)cc1 [NAFAMOSTAT MESYLATE]
EC50 (SARS-CoV-2 [6]): 1.4 nM
EC50 [7]: 5.9 nM
EC50 (SARS-CoV-2 [8]): 5 nM

CC[C@H](C)[C@H]1NC(=O)[C@@H](NC(=O)[C@@H](CC(C)C)N(C)C(=O)[C@@H]2CCCN2C(=O)C(C)=O)[C@@H](C)OC(=O)[C@H](Cc2ccc(OC)cc2)N(C)C(=O)[C@@H]2CCCN2C(=O)[C@H](CC(C)C)NC(=O)[C@@H](C)C(=O)[C@H](C(C)C)OC(=O)C[C@@H]1O [PLITIDEPSIN]
EC50 (SARS-CoV-2 [9]): 0.7 nM

COC(=O)[C@H]1[C@@H](O)[C@@]2(O)c3c(OC)cc(O[C@@H]4O[C@@H]([C@H](O)CO)CO[C@H]4OC)cc3O[C@@]2(c2ccc(OC)cc2)[C@@H]1c1ccccc1 [SILVESTROL]
EC50 (Human coronavirus 229E): 3 nM
EC50 [10]: 1.3 nM

COc1cc2c(c(OC)n1)[C@]1(O)[C@H](O)[C@H](CN(C)C)[C@@H](c3ccccc3)[C@]1(c1ccc(C#N)cc1)O2 [ZOTATIFIN]
EC50 (SARS-CoV-2 [11]): 37 nM
